Experimental data as given in article PMC3529200 (Bioorganic & medicinal chemistry letters, 2010).

Tests used:
[1] = pharmacokinetics, species not specified; settings: in vivo
CYP2C19 = CYP2C19 (Homo sapiens, UniProt P33261); assay: CYP inhibition
[2] = cynomolgus monkey pharmacokinetics; settings: up to 180 mg/kg in cynomolgus monkeys
CYP2C9 = CYP2C9 (Homo sapiens, UniProt P11712); assay: CYP inhibition
Caco-2 monolayer = Caco-2 monolayer permeability
CYP3A4 = CYP3A4 (Homo sapiens, UniProt P08684); assay: CYP inhibition
Chain of CYP3A4 (P08684 whole entry): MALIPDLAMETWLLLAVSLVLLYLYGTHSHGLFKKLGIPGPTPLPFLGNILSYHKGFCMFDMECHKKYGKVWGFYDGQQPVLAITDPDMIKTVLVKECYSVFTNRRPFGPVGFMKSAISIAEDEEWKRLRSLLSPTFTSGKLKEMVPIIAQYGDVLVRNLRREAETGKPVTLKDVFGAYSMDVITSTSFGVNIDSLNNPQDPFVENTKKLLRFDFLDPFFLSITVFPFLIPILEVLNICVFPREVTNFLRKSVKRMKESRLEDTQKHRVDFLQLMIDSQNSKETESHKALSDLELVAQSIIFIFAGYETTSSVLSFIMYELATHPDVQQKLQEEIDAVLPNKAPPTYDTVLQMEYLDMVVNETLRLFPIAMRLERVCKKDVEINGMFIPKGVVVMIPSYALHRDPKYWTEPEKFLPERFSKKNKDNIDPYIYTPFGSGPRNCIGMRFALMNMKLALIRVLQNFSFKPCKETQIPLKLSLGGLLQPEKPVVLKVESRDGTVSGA

CYP2J = assay: CYP inhibition
CYP1A2 = target: T1, CYP1A2 (Homo sapiens, UniProt P05177); assay: CYP inhibition
T1 sequence (P05177 1-516): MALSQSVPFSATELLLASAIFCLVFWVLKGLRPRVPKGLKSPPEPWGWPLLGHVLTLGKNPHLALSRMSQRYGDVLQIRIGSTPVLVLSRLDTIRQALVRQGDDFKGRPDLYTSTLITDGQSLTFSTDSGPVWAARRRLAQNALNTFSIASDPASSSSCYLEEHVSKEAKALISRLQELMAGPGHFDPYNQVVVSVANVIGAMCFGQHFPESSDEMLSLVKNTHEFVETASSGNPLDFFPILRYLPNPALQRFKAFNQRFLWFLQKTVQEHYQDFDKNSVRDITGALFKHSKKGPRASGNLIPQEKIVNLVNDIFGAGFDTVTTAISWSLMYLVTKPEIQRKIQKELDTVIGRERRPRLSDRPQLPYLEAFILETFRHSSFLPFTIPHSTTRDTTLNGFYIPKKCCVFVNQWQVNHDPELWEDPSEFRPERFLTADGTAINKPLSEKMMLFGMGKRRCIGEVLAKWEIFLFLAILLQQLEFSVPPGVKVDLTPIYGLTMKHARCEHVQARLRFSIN

[3] = early animal and human dose range finding toxicology studies; cited from earlier work
dog pharmacokinetics = settings: up to 500 mg/kg in dogs
rat pharmacokinetics = settings: up to 2000 mg/kg in rats
CYP2C = assay: CYP inhibition
[4] = tested on: impaired glucose tolerance; assay: diet induced-obesity; format: in vivo, C57Bl/6 mice; settings: 100 mg/kg oral twice a day, after 4 weeks, ip glucose 2 g/kg 4 hours after dose
[5] = tested on: ca.150 other enzyme and receptor targets; assay: selectivity panel of ca.150 other enzyme and receptor targets; settings: tested at 10 μM
CYP2B6 = target: T2, CYP2B6 (Homo sapiens, UniProt P20813); assay: CYP inhibition
T2 sequence (P20813 1-491): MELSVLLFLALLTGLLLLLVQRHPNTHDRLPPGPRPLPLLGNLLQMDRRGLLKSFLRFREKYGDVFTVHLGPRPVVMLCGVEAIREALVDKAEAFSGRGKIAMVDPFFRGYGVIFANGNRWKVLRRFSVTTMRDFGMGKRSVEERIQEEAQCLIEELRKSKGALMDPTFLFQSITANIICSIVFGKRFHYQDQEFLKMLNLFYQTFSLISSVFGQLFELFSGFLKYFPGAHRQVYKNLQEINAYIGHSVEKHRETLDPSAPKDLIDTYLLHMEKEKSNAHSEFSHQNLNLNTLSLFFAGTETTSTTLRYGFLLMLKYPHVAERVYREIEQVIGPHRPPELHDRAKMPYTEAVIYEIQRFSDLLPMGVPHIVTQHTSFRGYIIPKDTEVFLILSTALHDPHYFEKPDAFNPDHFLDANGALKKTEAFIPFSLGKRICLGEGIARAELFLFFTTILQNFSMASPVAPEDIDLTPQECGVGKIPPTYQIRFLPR

[6] = tested on: AngII-induced hypertension; assay: AngII-infused rat model of hypertension; format: in vivo, Sprague-Dawley rats; settings: 50 mg/kg orally twice daily

Chain of CYP2C19 (P33261 whole entry): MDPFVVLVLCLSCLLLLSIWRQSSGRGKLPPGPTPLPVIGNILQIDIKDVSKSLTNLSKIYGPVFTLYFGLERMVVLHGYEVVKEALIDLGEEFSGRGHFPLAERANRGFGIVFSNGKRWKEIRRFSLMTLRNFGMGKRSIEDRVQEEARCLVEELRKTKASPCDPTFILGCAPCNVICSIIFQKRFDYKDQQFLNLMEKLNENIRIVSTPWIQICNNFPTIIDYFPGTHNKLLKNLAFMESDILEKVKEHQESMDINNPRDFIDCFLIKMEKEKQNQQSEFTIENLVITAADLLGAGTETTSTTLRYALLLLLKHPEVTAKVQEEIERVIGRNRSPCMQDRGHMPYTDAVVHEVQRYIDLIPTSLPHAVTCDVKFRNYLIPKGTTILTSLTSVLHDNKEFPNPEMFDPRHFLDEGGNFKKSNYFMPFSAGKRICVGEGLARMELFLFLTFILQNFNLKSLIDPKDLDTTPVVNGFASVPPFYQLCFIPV
Chain of CYP2C9 (P11712 whole entry): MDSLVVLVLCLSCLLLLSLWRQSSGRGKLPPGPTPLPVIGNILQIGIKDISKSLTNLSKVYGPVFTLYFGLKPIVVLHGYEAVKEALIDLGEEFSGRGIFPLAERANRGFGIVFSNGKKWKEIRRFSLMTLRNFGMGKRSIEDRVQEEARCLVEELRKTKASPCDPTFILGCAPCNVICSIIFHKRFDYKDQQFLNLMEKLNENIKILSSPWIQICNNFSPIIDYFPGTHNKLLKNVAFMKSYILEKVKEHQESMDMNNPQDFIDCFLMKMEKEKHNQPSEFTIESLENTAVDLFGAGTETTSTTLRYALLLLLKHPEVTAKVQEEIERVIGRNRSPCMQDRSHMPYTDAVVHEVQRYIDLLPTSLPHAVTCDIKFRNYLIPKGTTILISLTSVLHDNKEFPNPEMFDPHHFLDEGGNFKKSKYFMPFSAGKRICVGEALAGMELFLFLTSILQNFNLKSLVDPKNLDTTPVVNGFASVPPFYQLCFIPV

- fraction unbound (plasma protein binding): 0.39 to 0.42
- clearance [1]: relatively moderate to high
- half life [1]: short
- inhibition of CYP2C19 (CYP2C19): No significant inhibition
- inhibition of CYP2C9 (CYP2C9): No significant inhibition
- permeability across a Caco-2 monolayer (Caco-2 monolayer): highly permeable
- inhibition of CYP3A4 (CYP3A4): No significant inhibition
- inhibition of CYP2J (CYP2J): No significant inhibition
- inhibition of CYP1A2 (CYP1A2): No significant inhibition
- inhibition of CYP2C (CYP2C): No significant inhibition
- inhibitory activity against panel of ca.150 other enzyme and receptor targets [5]: no inhibitory activity
- inhibition of CYP2B6 (CYP2B6): No significant inhibition
Compound: CC(=O)N1CCC(NC(=O)NC23CC4CC(CC(C4)C2)C3)CC1 [Compound 14a, 1-(1-Acetyl-piperidin-4-yl)-3-adamantan-1-yl-urea]
- oral exposure (AUC) versus dose [2]: increased in approximate proportion to dose
- tolerability [3]: well tolerated
- oral exposure (AUC) versus dose (dog pharmacokinetics): increased in approximate proportion to dose
- oral exposure (AUC) versus dose (rat pharmacokinetics): increased in approximate proportion to dose
- glucose AUC versus vehicle-treated animals [4]: lower
- maximal glucose excursion versus vehicle-treated animals [4]: lower
- effect on diastolic pressure [6]: more modest effect
